Results published in patent US12679827B2, “Pyrimidine compounds and their pharmaceutical uses” (National Health Research Institutes, priority 2020, dated 2026).
pIC50: −log10 of the molar value.

Assays:
[1] = background statement, WO 2014/190207A1; cited from earlier work
[2] = system: NCI-H446 xenografted tumor; experiment: Inhibition of xenografted tumor growth, NCI-H446-xenografted tumorigenicity mouse model; assay type: in vivo, mice; settings: 100 mg/kg orally; for tumor regression: NCI-H446 xenograft
Protocol: The efficacies of two compounds of Formula (I), i.e., compound 71 and compound 122, in inhibiting tumor growth were determined using a NCI-H446-xenografted tumorigenicity mouse model as below.
Male athymic nu/nu nude mice (BioLASCO, Taiwan) at age 6 wk were housed in sterile cages maintained under 12-h light/dark cycles with controlled temperature and humidity. The mice were inoculated s.c. with 1×10^6 NCI-H446 cells (ATCC® HTB-171) resuspended in saline mixed with 50% Metrigel Matrix (Corning, USA). The sizes of the xenografted tumors were measured by a digital caliper (GMC-190; Goldsun Electronics Co.) and calculated using the algorithm: tumor volume (mm^3)=length×(width)^2/2. Body weight and tumor size were measured at least twice a week.

NCI-H82 = experiment: Small-cell-lung cancer cell proliferation inhibition assay (PrestoBlue), NCI-H82; assay type: cell-based; settings: Homo sapiens, cMYC amplified SCLC cells, 72 hours
Protocol: (§1) Small cell lung cancer cells NCI-H82 (ATCC HTB-175, cMYC amplified), NCI-H446 (ATCC® HTB-171, cMYC amplified), and NCI-H69 (ATCC® HTB-119, MYCN amplified) were seeded at the density of 5000-10000 cells per well in 96-well plates. After 24 hours, the cancer cells were treated with each compound at various concentrations (0-10 μM) and then incubated for another 72 hours. IC50 values were computed based on duplicated 8-point titration.

cleaved PARP-1 (cPARP-1) = experiment: In vivo cell apoptosis induction (cleaved PARP-1), NCI-H446 xenograft mouse model, Western blot; set-up: species or system mice; settings: one oral dosage of 100 mg/kg; 24 hours after administration; FIG. 3
Protocol: (§2) The efficacy of a compound of Formula (I), i.e., compound 71, in reducing the cMYC protein level and in inducing cell apoptosis was assessed using an NCI-H446 xenograft tumorigenicity mouse model as follows.
(§3) Male athymic nu/nu nude mice (BioLASCO. Taiwan) at 6-week age were housed in sterile cages maintained under 12-h light/dark cycles with controlled temperature and humidity. Mice were inoculated s.c. with 1×10^6 NCI-H446 cells resuspended in saline mixed with 50% Metrigel Matrix (Corning, USA). The sizes of the xenografted tumors were measured by a digital caliper (GMC-190; Goldsun Electronics Co.) and calculated using the algorithm: tumor volume (mm^3)=length×(width)^2/2. Body weight and tumor size were measured at least twice a week. When the xenografted NCI-H446 tumor reached a size ≥500 mm^3, the xenografted tumor-bearing nude mice were oral (PO) administered with compound 71 at one dosage of 100 mg/kg. Tumors were harvested at 2 hours, 4 hours, 8 hours, and 24 hours after the administration. Tissue lysates of the tumors were subjected for Western blot analysis. The primary antibodies used were cMYC (Cell Signaling, Cat No. 5605S), PARP-1 (Abcam, ab32378), and β-ACTIN (Sigma-Aldrich, A1978).

cMYC = experiment: In vivo cMYC protein level reduction, NCI-H446 xenograft mouse model, Western blot; set-up: species or system mice; settings: one oral dosage of 100 mg/kg; tumors harvested 2-24 hours; FIG. 3
Protocol: as §2, §3

NCI-H69 = experiment: Small-cell-lung cancer cell proliferation inhibition assay (PrestoBlue), NCI-H69; assay type: cell-based; settings: Homo sapiens, MYCN amplified SCLC cells, 72 hours
Protocol: as §1

NCI-H446 = experiment: Small-cell-lung cancer cell proliferation inhibition assay (PrestoBlue), NCI-H446; assay type: cell-based; settings: Homo sapiens, cMYC amplified SCLC cells, 72 hours
Protocol: as §1

[3] = target: T1, human Aurora A (amino acids 123-401) (Homo sapiens, UniProt O14965); experiment: Kinase-Glo Luminescent Kinase assay, in vitro inhibition of Aurora A kinase activity; assay type: biochemical; settings: recombinant GST-tagged Aurora A, 5.0 μM ATP, 37° C., 120 minutes
T1 construct: human Aurora A (amino acids 123-401) was expressed in Sf9 insect cells; GST; made in house; host or cells: Sf9 insect cells
T1 sequence (O14965 123-401): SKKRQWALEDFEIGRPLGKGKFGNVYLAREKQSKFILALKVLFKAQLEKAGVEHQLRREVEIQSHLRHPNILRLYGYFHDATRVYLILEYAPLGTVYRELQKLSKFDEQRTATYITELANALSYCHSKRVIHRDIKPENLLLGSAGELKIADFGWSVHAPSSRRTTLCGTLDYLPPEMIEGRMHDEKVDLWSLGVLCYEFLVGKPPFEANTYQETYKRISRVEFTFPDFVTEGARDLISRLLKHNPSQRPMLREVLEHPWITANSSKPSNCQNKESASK
Protocol: Recombinant glutathione S-transferase (GST)-tagged N-terminal truncated human Aurora A (amino acids 123-401) was expressed in Sf9 insect cells and then purified by glutathione affinity chromatography to afford recombinant Aurora A. Recombinant Aurora A (150 ng) was reacted with each test compound (100 nM) in 50 μL of 50 mM Tris-HCl pH 7.4, 10 mM NaCl, 10 mM MgCl2, 0.01% bovine serum albumin, 5.0 μM ATP, 1 mM dithiothreitol, 15 μM tetra(-LRRASLG) peptide at 37° C. for 120 minutes. Then, to the reaction was added 50 μL of Kinase-Glo Plus Reagent. The resulting mixture was incubated at 25° C. for 20 minutes. A 70 μL aliquot of the mixture was transferred to a black microliter plate. Luminescence was measured using a Wallac Vector 1420 multilabel counter (PerkinElmer, USA).

O=C(Nc1ccc(Nc2nccc(Nc3cc(C4CCCC4)[nH]n3)n2)cc1)Nc1cccc(C(F)(F)F)c1 [CD532]
in vivo efficacy [1]: weak

CCC(=O)n1nc(C)cc1Nc1cc(N2CCN(CC)CC2)nc(N[C@H]2CCN(C(=O)c3ccc(Cl)cc3F)C2)n1 [Compound 71]
tumor size after treatment ([2]; 5-on-2-off, from about 250 mm^3, in 10 days, FIG. 2A): smaller than 50 mm^3 | tumor size after treatment ([2]; 5-on-2-off, from larger than 750 mm^3, in 14 days, FIG. 2C): smaller than 50 mm^3 | tumor regression [2]: more than 80% | pIC50 (NCI-H82): > 6.00 | xenografted tumors with increased amounts of cleaved PARP-1 (cell apoptosis) (cleaved PARP-1 (cPARP-1)): more than 80% | xenografted tumors with reduced cMYC protein level (cMYC): more than 50% | pIC50 (NCI-H69): > 6.00 | pIC50 (NCI-H446): > 6.00

Cc1cc(Nc2cc(N3C[C@H](C)NC[C@H]3C)nc(NC3CCN(C(=O)c4cccc(Cl)c4F)CC3)n2)n[nH]1 [Compound 107]
pIC50 (NCI-H82): > 6.00 | pIC50 [3]: > 7.00 | pIC50 (NCI-H69): > 6.00 | pIC50 (NCI-H446): > 6.00

CCC(=O)n1nc(C)cc1Nc1cc(N2CCN(CC)CC2)nc(NC2CCN(C(=O)c3cccc(Cl)c3F)CC2)n1 [Compound 122]
tumor regression [2]: more than 80% | tumor size after treatment ([2]; from about 250 mm^3, FIG. 2B): smaller than 50 mm^3 | pIC50 (NCI-H82): > 6.00 | pIC50 [3]: > 7.00 | pIC50 (NCI-H69): > 6.00 | pIC50 (NCI-H446): > 6.00

CCC(=O)n1nc(Nc2cc(N3CCN(CC)CC3)nc(NC3CCN(C(=O)c4cccc(Cl)c4F)CC3)n2)cc1C [Compound 123]
pIC50 (NCI-H82): > 6.00 | pIC50 [3]: > 7.00 | pIC50 (NCI-H69): > 6.00 | pIC50 (NCI-H446): > 6.00

COc1cc(Nc2ncc3c(n2)-c2ccc(Cl)cc2C(c2c(F)cccc2OC)=NC3)ccc1C(=O)O [MCLN8237, reference compound]
tumor size 6 weeks after the treatment stopped ([2]; FIG. 2A): > 700 mm^3
